Laboratory results from patent US9980943B2, “Methods of treating muscular dystrophy” (BOARD OF REGENTS OF THE NEVADA SYSTEM OF HIGHER EDUCATION, …, priority 2013, dated 2018).

Key:
Type in all cases: cell-based, mouse
[1] = test system: β-galactosidase in CMV-LacZ C2C12 myotubes; test: CMV-LacZ secondary screen in C2C12 myotubes (β-Gal stabilizing assay); details: for CMV-LACZ in Myotubes, value relative to DMSO: SU9516 analogs, C2C12 CMV-LacZ, N=2; for CMV-LACZ in Myotubes, signal relative to DMSO: C2C12 CMV-LacZ myotubes, fold relative to DMSO
Outline: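 Dose-response runs at 0.5–40 μM (0.5, 1, 5, 10, 20, 40 μM; N=2 per point) used a clonal C2C12 line carrying CMV-LacZ. Cells were assayed as myoblasts or as differentiated myotubes, and β-galactosidase levels were read with the FDG fluorogenic substrate.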

[2] = test system: α7 integrin (LacZ reporter in α7βgal+/− myoblasts); test: Myoblast α7+/LacZ integrin FDG assay (Burkin assay in myoblasts, 96-well); details: 96-well; for Burkin Assay in Myoblasts, value relative to DMSO: SU9516 analogs, N=3-6; for Burkin Assay in Myoblasts, signal relative to DMSO: α7+/LacZ myoblasts
[3] = test system: α7 integrin (LacZ reporter in α7+/LacZ myotubes); test: Myotube α7 integrin FDG assay (Burkin assay in myotubes, 96-well); details: for Burkin Assay in Myotubes, value relative to DMSO: SU9516 analogs, 96-well, N=3-6
[4] = test system: β-galactosidase in CMV-LacZ C2C12 myoblasts; test: CMV-LacZ secondary screen in C2C12 myoblasts (β-Gal stabilizing assay); details: for CMV-LACZ in Myoblasts, value relative to DMSO: SU9516 analogs, C2C12 CMV-LacZ, N=2; for CMV-LACZ in Myoblasts (β-galactosidase activity relative to DMSO): CMV-LacZ C2C12 myoblasts
Outline: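 C2C12 myoblasts stably carrying a linearized CMV-driven LacZ construct, clone chosen by β-gal level in the myoblast FDG assay. Compounds tested in 96-well dose-response at 0.5, 1, 5, 10, 20 and 40 μM, N=2 replicates per point, to detect β-gal stabilization.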

COc1ccc(C(=O)/C=C2/C(=O)Nc3ccccc32)cc1 [MLS001163848-01]
CMV-LACZ in Myotubes, value relative to DMSO ([1]; 0.5 uM): 1.2133
CMV-LACZ in Myotubes, value relative to DMSO ([1]; 1 uM): 0.9638
CMV-LACZ in Myotubes, value relative to DMSO ([1]; 5 uM): 1.1937
CMV-LACZ in Myotubes, value relative to DMSO ([1]; 10 uM): 4.2586
CMV-LACZ in Myotubes, value relative to DMSO ([1]; 20 uM): 6.7729
CMV-LACZ in Myotubes, value relative to DMSO ([1]; 40 uM): 6.8624
Burkin Assay in Myoblasts, value relative to DMSO ([2]; 0.5 uM): 1.002
Burkin Assay in Myoblasts, value relative to DMSO ([2]; 1 uM): 0.8906
Burkin Assay in Myoblasts, value relative to DMSO ([2]; 5 uM): 0.4854
Burkin Assay in Myoblasts, value relative to DMSO ([2]; 10 uM): 0.3141
Burkin Assay in Myoblasts, value relative to DMSO ([2]; 20 uM): 0.297
Burkin Assay in Myoblasts, value relative to DMSO ([2]; 40 uM): 0.1444
Burkin Assay in Myotubes, value relative to DMSO ([3]; 0.5 uM): 1.0964
Burkin Assay in Myotubes, value relative to DMSO ([3]; 1 uM): 1.045
Burkin Assay in Myotubes, value relative to DMSO ([3]; 5 uM): 0.9587
Burkin Assay in Myotubes, value relative to DMSO ([3]; 10 uM): 0.7469
Burkin Assay in Myotubes, value relative to DMSO ([3]; 20 uM): 0.6878
Burkin Assay in Myotubes, value relative to DMSO ([3]; 40 uM): 0.4876
CMV-LACZ in Myoblasts, value relative to DMSO ([4]; 0.5 uM): 1.1146
CMV-LACZ in Myoblasts, value relative to DMSO ([4]; 1 uM): 0.9620
CMV-LACZ in Myoblasts, value relative to DMSO ([4]; 5 uM): 0.9336
CMV-LACZ in Myoblasts, value relative to DMSO ([4]; 10 uM): 1.0762
CMV-LACZ in Myoblasts, value relative to DMSO ([4]; 20 uM): 2.1030
CMV-LACZ in Myoblasts, value relative to DMSO ([4]; 40 uM): 2.2215

C#CC1(O)CCC2C3CCC4=C/C(=N/OCC(=O)NCC(=O)NC(C(=O)O)C(C)C)CC[C@]4(C)C3CC[C@@]21C (stereo partly drawn) [MLS001163859-01]
CMV-LACZ in Myotubes, signal relative to DMSO ([1]; 0.5 uM): 0.8756
CMV-LACZ in Myotubes, signal relative to DMSO ([1]; 1 uM): 1.1326
CMV-LACZ in Myotubes, signal relative to DMSO ([1]; 5 uM): 1.0856
CMV-LACZ in Myotubes, signal relative to DMSO ([1]; 10 uM): 1.1727
CMV-LACZ in Myotubes, signal relative to DMSO ([1]; 20 uM): 1.0965
CMV-LACZ in Myotubes, signal relative to DMSO ([1]; 40 uM): 1.2482
Burkin Assay in Myoblasts, signal relative to DMSO ([2]; 0.5 uM): 0.9786
Burkin Assay in Myoblasts, signal relative to DMSO ([2]; 1 uM): 1.09
Burkin Assay in Myoblasts, signal relative to DMSO ([2]; 5 uM): 1.055
Burkin Assay in Myoblasts, signal relative to DMSO ([2]; 10 uM): 1.024
Burkin Assay in Myoblasts, signal relative to DMSO ([2]; 20 uM): 0.9208
Burkin Assay in Myoblasts, signal relative to DMSO ([2]; 40 uM): 0.928
Burkin Assay in Myotubes, α7 integrin LacZ reporter signal relative to DMSO ([3]; 0.5 uM): 1.132
Burkin Assay in Myotubes, α7 integrin LacZ reporter signal relative to DMSO ([3]; 1 uM): 1.281
Burkin Assay in Myotubes, α7 integrin LacZ reporter signal relative to DMSO ([3]; 5 uM): 1.385
Burkin Assay in Myotubes, α7 integrin LacZ reporter signal relative to DMSO ([3]; 10 uM): 1.249
Burkin Assay in Myotubes, α7 integrin LacZ reporter signal relative to DMSO ([3]; 20 uM): 1.118
Burkin Assay in Myotubes, α7 integrin LacZ reporter signal relative to DMSO ([3]; 40 uM): 1.058
CMV-LACZ in Myoblasts (β-galactosidase activity relative to DMSO) ([4]; 0.5 uM): 1.1113
CMV-LACZ in Myoblasts (β-galactosidase activity relative to DMSO) ([4]; 1 uM): 1.1684
CMV-LACZ in Myoblasts (β-galactosidase activity relative to DMSO) ([4]; 5 uM): 1.2009
CMV-LACZ in Myoblasts (β-galactosidase activity relative to DMSO) ([4]; 10 uM): 1.1812
CMV-LACZ in Myoblasts (β-galactosidase activity relative to DMSO) ([4]; 20 uM): 0.7593
CMV-LACZ in Myoblasts (β-galactosidase activity relative to DMSO) ([4]; 40 uM): 0.8104

COc1ccc(C(=O)/C=C2/C(=O)Nc3ccccc32)cc1OC [MLS001163860-01]
CMV-LACZ in Myotubes, value relative to DMSO ([1]; 0.5 uM): 1.0352
CMV-LACZ in Myotubes, value relative to DMSO ([1]; 1 uM): 1.1562
CMV-LACZ in Myotubes, value relative to DMSO ([1]; 5 uM): 1.1250
CMV-LACZ in Myotubes, value relative to DMSO ([1]; 10 uM): 1.2757
CMV-LACZ in Myotubes, value relative to DMSO ([1]; 20 uM): 1.3880
CMV-LACZ in Myotubes, value relative to DMSO ([1]; 40 uM): 1.4490
Burkin Assay in Myoblasts, value relative to DMSO ([2]; 0.5 uM): 0.9494
Burkin Assay in Myoblasts, value relative to DMSO ([2]; 1 uM): 0.8457
Burkin Assay in Myoblasts, value relative to DMSO ([2]; 5 uM): 0.5793
Burkin Assay in Myoblasts, value relative to DMSO ([2]; 10 uM): 0.4922
Burkin Assay in Myoblasts, value relative to DMSO ([2]; 20 uM): 0.1722
Burkin Assay in Myoblasts, value relative to DMSO ([2]; 40 uM): 0.2347
Burkin Assay in Myotubes, value relative to DMSO ([3]; 0.5 uM): 1.009
Burkin Assay in Myotubes, value relative to DMSO ([3]; 1 uM): 0.9404
Burkin Assay in Myotubes, value relative to DMSO ([3]; 5 uM): 0.9223
Burkin Assay in Myotubes, value relative to DMSO ([3]; 10 uM): 1.138
Burkin Assay in Myotubes, value relative to DMSO ([3]; 20 uM): 0.862
Burkin Assay in Myotubes, value relative to DMSO ([3]; 40 uM): 1.209
CMV-LACZ in Myoblasts, value relative to DMSO ([4]; 0.5 uM): 0.9350
CMV-LACZ in Myoblasts, value relative to DMSO ([4]; 1 uM): 0.8230
CMV-LACZ in Myoblasts, value relative to DMSO ([4]; 5 uM): 0.9610
CMV-LACZ in Myoblasts, value relative to DMSO ([4]; 10 uM): 1.1417
CMV-LACZ in Myoblasts, value relative to DMSO ([4]; 20 uM): 0.3425
CMV-LACZ in Myoblasts, value relative to DMSO ([4]; 40 uM): 0.6488
